Measurements reported in US9464326B2, “Total and phosphorylated IL-1 receptor-associated kinase-1 and IL-1 receptor-associated kinase-4 as a biomarker for cancer progression and chemotherapy resistance” (University of Maryland, Baltimore, priority 2012, dated 2016).

Assays:
CCRF-CEM cells [1] = test: CCRF-CEM T-ALL numbers in NSG mice (flow cytometry); assay type: in vivo
Experimental: CCRF-CEM (2×10^6) cells were injected intravenously (i.v.) into female NOD.Cg-Prkdc^scid Il2rg^tm1WJl/SzJ IL2RG (NSG) mice (Jackson Laboratories, Bar Harbor, Me.). […] In some experiments mice were injected i.v. with TLR1-TLR2 ligand (2.5 μg) two days after injecting cells. In other experiments mice were injected intraperitoneally (i.p.) with IRAK-1,-4 inhibitor (10 mg/kg) 3, 6, and 9 days (CCRF-CEM cells) or 7, 10, and 13 days (patient T-ALL cells) after detecting CD7^+ T-ALL cells in circulation. The numbers of T-ALL cells in the bone marrow, spleen, liver, and in circulation were determined by staining cells with anti-human CD7 and/or CD5. To compare T-ALL numbers between groups, 10 μl of calibration microbeads (BD Pharmingen) were added to 50 μl of blood (or marrow or spleen suspensions) and the flow cytometry instrument gates were set to count a constant number of beads.
The therapeutic efficacy of IRAK-1,-4 inhibitor was examined in mice with T-ALL. NSG mice were injected (i.v.) with the human T-ALL cell line CCRF-CEM. Mice were intraperitoneally (i.p.) injected with IRAK-1,-4 inhibitor 3, 6, and 9 days after T-ALL cells were detected in the circulation. The number of T-ALL cells in various tissues was determined four days after the final IRAK-1,-4 inhibitor injection by staining cells with human-specific anti-CD7 antibodies and analyzing by flow cytometry. The number of T-ALL cells was counted after normalization to calibration beads.
The physiological significance of activating TLR-IRAK signaling and T-ALL expansion was examined in vivo. NSG mice harboring CCRF-CEM cells were injected with either TLR1-TLR2 ligand or PBS. One week later the numbers of CD5+CD7+ T-ALL cells in bone marrow and spleen were determined by flow cytometry (FIG. 5, left). To normalize the T-ALL cell count between mice, an equal volume of calibration beads was added to blood samples and the instrument gates were set to count a constant number of beads.

patient T-ALL samples = test: SA-β-gal activity in patient T-ALL samples from treated NSG mice; assay type: in vivo; details: p<0.05, FIG. 15C
Experimental: (§1) Analysis of senescence-associated β-galactosidase (SA-β-gal) activity was performed using the 96-Well Cellular Senescence Assay Kit (Cell Biolabs, San Diego, Calif.) as per the manufacturer's protocol. In brief, cells were washed with PBS, lysed with cell lysis buffer, and incubated at 37° C. with SA-β-gal substrate for 1 hour. A quantitative Cellular Senescence Assay Kit (SA-β-gal, Fluorometric) (Cell Biolabs, San Diego, Calif.) was used for more quantitative measurement of SA-β-gal activity by flow cytometry. Briefly, control and treated CCRF-CEM cells were incubated with 1× cell pretreatment solution in culture medium for 2 hrs, and the fluorogenic substrate was then directly added into the culture. After 4 hrs, the cells were washed and analyzed by flow cytometry.
CCRF-CEM (2×10^6) cells were injected intravenously (i.v.) into female NOD.Cg-Prkdc^scid Il2rg^tm1WJl/SzJ IL2RG (NSG) mice (Jackson Laboratories, Bar Harbor, Me.). […] In some experiments mice were injected i.v. with TLR1-TLR2 ligand (2.5 μg) two days after injecting cells. […] The numbers of T-ALL cells in the bone marrow, spleen, liver, and in circulation were determined by staining cells with anti-human CD7 and/or CD5. […]

CCRF-CEM cells [2] = test: Cellular senescence assay (SA-β-gal); assay type: cell-based, human; details: 5 μM, within 48 hours, maintained to 96 hour, FIG. 15A
Experimental: as §1

Jurkat = test: Proliferation (3H-thymidine) of Jurkat; assay type: cell-based, human; details: 3H-thymidine uptake, 72 h
Source text: (§2) CCRF-CEM, CEM/C1, CEM/C2, CEM-C7, Jurkat, Loucy, Molt-4, HSB-2, SUP-T1, Hut 78, HH, Hut 102, MO, and H9 T-leukemia and T-lymphoma cell lines were purchased from the American Type Culture Collection (Manassas, Va., USA). All of the cell lines were initially expanded and cryopreserved within one month of receipt. Cells were typically used for 6 months at which time a fresh vial of cryopreserved cells was used. Total T cells from healthy donors were isolated via negative selection followed by positive selection using a CD3+ selection kit (Invitrogen, Carlsbad, Calif.). T cells were isolated from patients with T-ALL bone marrow or peripheral blood samples containing more than 70% leukemia cells using a CD2+ isolation kit (STEMCELL Technologies, Vancouver, Canada). All tissues were collected under institutional IRB-approved protocols and all participants gave written informed assent/consent. For in vitro experiments, T-ALL cells were cultured in AIM-V medium supplemented with 20% human AB serum in the presence of recombinant human stem cell factor (50 ng/mL; Amgen, Thousand Oaks, Calif.), insulin (20 nM; Sigma-Aldrich, St Louis, Mo., USA) and IL-7 (50 ng/mL; R&D Systems, Minneapolis, Minn., USA). In other experiments, protein lysate was collected using the Full Moon Biosystems (Sunnyvale, Calif., USA) buffer prior to protein examination by western blot or protein array.
(§3) Cells were cultured in a 96-well plate (Corning Costar, Corning, N.Y., USA) with various concentrations of TLR ligands 1-9, starting at 10 μg/ml, in a final volume of 200 ul. TLR ligands were diluted 2-fold. Cell lines (25-40×10^3/well) were cultured for 54 hours, whereas fresh patient-derived T-ALL cells (200×10^3/well) were cultured for 30 hours prior to adding [^3H]-thymidine for 18 hours. After this time point, cells were harvested with a Packard Filter-Mate-96 cell harvester (Perkin Elmer, Waltham, Mass., USA) and counted on Packard Top Count-NXT (Perkin Elmer, Waltham, Mass., USA). Results were expressed as average counts per minute (cpm). In some experiments CCRF-CEM cells were pre-treated with TLR1-TLR2 ligand (Pam3CysK4; 2.5 ug/ml) for 48 hrs, washed, and then cultured in the presence of varying concentrations of FBS. Forty-eight hours later, proliferation (±SD) was determined by ^3H-thymidine incorporation. Alternatively, apoptosis was measured by flow cytometry after staining cells with Annexin-V (BD Pharmingen, San Diego, Calif., USA) and propidium iodide (Sigma). Cell number was counted under microscopy by staining cells with trypan blue. […]

MO = test: Proliferation (3H-thymidine) of MO; assay type: cell-based, human; details: 3H-thymidine uptake, 72 h
Source text: as §2, with “In other experiments, protein lysate was collected using the Full Moon Biosystems (Sunnyvale, Calif., USA) buffer prior to protein examination by western blot or protein array.” left out
as §3, with “TLR ligands were diluted 2-fold. Cell lines (25-40×10^3/well) were cultured for 54 hours, whereas fresh patient-derived T-ALL cells (200×10^3/well) were cultured for 30 hours prior to adding [^3H]-thymidine for 18 hours.” left out, “In some experiments CCRF-CEM cells were pre-treated with TLR1-TLR2 ligand (Pam3CysK4; 2.5 ug/ml) for 48 hrs, washed, and then cultured in the presence of varying concentrations of FBS.” left out

[3] = 10 mg/kg i.p. days 3, 6, 9, FIG. 17
[4] = 10 mg/kg i.p. days 3, 6, 9, vs DMSO or untreated, p<0.05
[5] = TLR1-TLR2 ligand 2.5 μg i.v. vs PBS, p<0.05, FIG. 5

Compound	T-ALL cell numbers in the liver (CCRF-CEM cells [1]; [3])	T-ALL cell numbers in the spleen (CCRF-CEM cells [1]; [3])	number of CD7+ T-ALL cells in circulation (CCRF-CEM cells [1]; [4])	number of CD7+ T-ALL cells in the bone marrow (CCRF-CEM cells [1]; [4])	SA-β-gal activity (patient T-ALL samples)	increase of SA-β-gal activity (CCRF-CEM cells [2])	Proliferative effects of TLR ligands (Jurkat)	T-ALL cell number (CD5+CD7+) in the bone marrow (CCRF-CEM cells [1]; [5])	T-ALL cell number (CD5+CD7+) in the spleen (CCRF-CEM cells [1]; [5])	Proliferative effects of TLR ligands (MO)
O=C(Nc1nc2ccccc2n1CCN1CCOCC1)c1cccc([N+](=O)[O-])c1 [IRAK-1,-4 inhibitor]	only moderately reduced	only moderately reduced	significantly reduced	significantly reduced	increased SA-β-gal activity	three-fold	–	–	–	–
tripalmitoyl-S-(bis(palmitoyloxy)propyl)-Cys-Ser-(Lys)3-Lys [Pam3Cysk4]	–	–	–	–	–	–	∘	significantly augmented	significantly augmented	∘
